Consider 13 compounds from ChEMBL document CHEMBL1128688, “Synthesis and biological evaluation of a series of substituted benzo[a]phenanthridines as agonists at D1 and D2 dopamine receptors” (J Med Chem, 1995).

In experiment [1] the target is Adenylate cyclase type 5 (Rattus norvegicus) (UniProt Q04400). Description: Intrinsic activity measured as ability to stimulate dopamine sensitive Adenylate cyclase activity was measured in rat striatum. It counts as functional, tissue-based.
For experiment [2], the target named is D(1A) dopamine receptor (Rattus norvegicus) (UniProt P18901). Description: Binding affinity for dopamine receptor D1 in rat striatal homogenate.
Chain of D(1A) dopamine receptor (Rattus norvegicus) (P18901 whole entry): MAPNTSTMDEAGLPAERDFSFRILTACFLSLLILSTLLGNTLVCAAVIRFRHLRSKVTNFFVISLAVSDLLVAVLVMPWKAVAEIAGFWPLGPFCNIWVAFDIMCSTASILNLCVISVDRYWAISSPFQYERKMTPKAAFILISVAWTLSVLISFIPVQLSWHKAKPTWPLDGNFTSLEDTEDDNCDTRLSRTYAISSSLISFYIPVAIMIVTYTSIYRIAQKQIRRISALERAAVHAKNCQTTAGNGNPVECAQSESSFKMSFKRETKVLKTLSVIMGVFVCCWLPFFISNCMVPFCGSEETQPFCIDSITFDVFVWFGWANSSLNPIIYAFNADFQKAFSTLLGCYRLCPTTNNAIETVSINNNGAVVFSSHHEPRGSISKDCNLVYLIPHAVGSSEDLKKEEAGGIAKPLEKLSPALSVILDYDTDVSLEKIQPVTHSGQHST
In experiment [3] the target is Dopamine receptors; D1 & D2 (Rattus norvegicus) (UniProt P18901+P61169). Description: Relative binding affinity for dopamine receptors D1 and D2 in rat striatal homogenates.
The target of experiment [4] is D(2) dopamine receptor (Rattus norvegicus) (UniProt P61169). In words: Binding affinity for Dopamine receptor D2 of rat striatal homogenate.
Chain of D(2) dopamine receptor (Rattus norvegicus) (P61169 whole entry): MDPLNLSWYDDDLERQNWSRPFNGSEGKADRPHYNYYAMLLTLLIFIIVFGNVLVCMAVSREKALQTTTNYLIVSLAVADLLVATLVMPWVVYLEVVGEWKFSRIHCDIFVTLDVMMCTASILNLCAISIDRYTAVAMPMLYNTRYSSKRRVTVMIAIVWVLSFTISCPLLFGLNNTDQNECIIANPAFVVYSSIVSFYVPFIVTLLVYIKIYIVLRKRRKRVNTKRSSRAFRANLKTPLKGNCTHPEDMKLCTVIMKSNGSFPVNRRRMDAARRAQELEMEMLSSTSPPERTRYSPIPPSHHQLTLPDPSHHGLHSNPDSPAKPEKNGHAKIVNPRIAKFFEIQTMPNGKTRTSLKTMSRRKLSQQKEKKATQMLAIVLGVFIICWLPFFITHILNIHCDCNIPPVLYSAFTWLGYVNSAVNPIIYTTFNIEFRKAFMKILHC

Chain of Adenylate cyclase type 5 (Rattus norvegicus) (Q04400 whole entry): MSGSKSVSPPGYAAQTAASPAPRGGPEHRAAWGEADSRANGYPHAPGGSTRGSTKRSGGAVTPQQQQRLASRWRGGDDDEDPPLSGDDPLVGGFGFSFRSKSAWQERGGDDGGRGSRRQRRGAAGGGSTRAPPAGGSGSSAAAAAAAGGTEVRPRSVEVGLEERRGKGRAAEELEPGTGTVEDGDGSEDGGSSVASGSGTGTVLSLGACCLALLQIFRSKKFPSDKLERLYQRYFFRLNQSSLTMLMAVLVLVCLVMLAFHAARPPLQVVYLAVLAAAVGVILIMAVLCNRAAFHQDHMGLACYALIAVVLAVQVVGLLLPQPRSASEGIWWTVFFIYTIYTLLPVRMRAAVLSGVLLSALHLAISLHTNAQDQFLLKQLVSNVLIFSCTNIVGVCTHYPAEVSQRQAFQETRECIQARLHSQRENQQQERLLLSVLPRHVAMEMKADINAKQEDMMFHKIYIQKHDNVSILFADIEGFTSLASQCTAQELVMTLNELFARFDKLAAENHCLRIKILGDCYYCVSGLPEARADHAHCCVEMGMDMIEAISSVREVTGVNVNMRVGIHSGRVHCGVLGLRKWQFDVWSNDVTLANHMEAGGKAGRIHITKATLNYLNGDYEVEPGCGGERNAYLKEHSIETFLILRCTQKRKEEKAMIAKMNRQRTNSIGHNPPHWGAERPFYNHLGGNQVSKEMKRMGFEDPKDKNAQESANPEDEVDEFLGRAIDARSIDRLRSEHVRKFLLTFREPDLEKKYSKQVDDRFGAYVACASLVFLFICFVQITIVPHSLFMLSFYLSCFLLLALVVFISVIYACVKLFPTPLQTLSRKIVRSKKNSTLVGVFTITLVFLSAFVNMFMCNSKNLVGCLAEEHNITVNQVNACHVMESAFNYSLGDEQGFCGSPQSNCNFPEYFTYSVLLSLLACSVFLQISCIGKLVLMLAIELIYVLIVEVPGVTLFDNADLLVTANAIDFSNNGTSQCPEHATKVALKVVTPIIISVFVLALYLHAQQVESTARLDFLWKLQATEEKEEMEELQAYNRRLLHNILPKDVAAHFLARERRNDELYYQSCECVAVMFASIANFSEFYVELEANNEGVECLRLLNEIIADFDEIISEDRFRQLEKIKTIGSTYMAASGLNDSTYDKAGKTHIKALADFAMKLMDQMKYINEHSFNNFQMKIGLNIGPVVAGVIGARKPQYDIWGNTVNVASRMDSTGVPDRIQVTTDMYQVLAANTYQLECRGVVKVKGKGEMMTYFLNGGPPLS

With `Cc1cccc2c1CN[C@@H]1CCc3cc(O)c(O)cc3[C@@H]21`, the Intrinsic activity in experiment [1] came out at 80%. Also, the K0.5 was found to be 6.58 nM in experiment [2] and 18 nM in experiment [4]. In experiment [3], the Selectivity came to 2.7.
Turning to `Oc1ccc2c(c1)CN[C@@H]1CCc3cc(O)c(O)cc3[C@@H]21`, the Intrinsic activity in experiment [1] is 104%. The K0.5 in experiment [2] stood at 12.2 nM; in experiment [4], 53.6 nM. In experiment [3], this compound returned a Selectivity of 4.4.
Regarding `CCCN1Cc2ccccc2[C@@H]2c3cc(O)c(O)cc3CC[C@H]21`, the Intrinsic activity in experiment [1] was determined as 40%. For the same compound, the K0.5 in experiment [2] was determined as 180 nM; in experiment [4], 25.7 nM.
As to `CN1CCc2cc(Cl)c(O)cc2[C@@H](c2ccccc2)C1`, the K0.5 in experiment [4] is above 500 nM.
As to `Cc1ccc2c(c1)CN[C@@H]1CCc3cc(O)c(O)cc3[C@@H]21`, the Intrinsic activity in experiment [1] was 105%. Further, the figures for the K0.5 in experiment [2] and in experiment [4] were 5.06 nM and 18 nM, respectively. In experiment [3], the Selectivity came out at 3.6.
`Oc1cc2c(cc1O)[C@H]1c3cc(-c4ccccc4)ccc3CN[C@@H]1CC2`: in experiment [1], the Intrinsic activity worked out at 60%. Also, the K0.5 in experiment [2] stood at 187 nM; in experiment [4], 90.2 nM. Besides, the Selectivity in experiment [3] was 0.5.
The matching figures for `CCc1ccc2c(c1)[C@@H]1c3cc(O)c(O)cc3CC[C@H]1NC2`: 103%, 29.2 nM, 423 nM and 14.5.
In the case of `Oc1cc2c(cc1O)[C@H]1c3ccccc3CN[C@@H]1CC2`, the Intrinsic activity in experiment [1] amounted to 95%.
As to `O=c1[nH]c2ccccc2n1CCCN1CCC(n2c(=O)[nH]c3cc(Cl)ccc32)CC1`, the K0.5 was above 1000 nM in experiment [2] and 1 nM in experiment [4]. In experiment [3], this compound returned a Selectivity below 1000.
As to `Cc1ccc2c(c1)[C@@H]1c3cc(O)c(O)cc3CC[C@H]1NC2`, the Intrinsic activity in experiment [1] amounted to 91%. In experiment [2], this compound showed a K0.5 of 8.66 nM.
In the case of `Oc1ccc2c(c1)[C@@H]1c3cc(O)c(O)cc3CC[C@H]1NC2`, in experiment [1], the Intrinsic activity turned out to be 95%. The figures for the K0.5 in experiment [2] and in experiment [4] were 18.8 nM and 194 nM, respectively. In experiment [3], the Selectivity was 10.3.
As for `CCCN1Cc2c(C)cccc2[C@@H]2c3cc(O)c(O)cc3CC[C@H]21`, in experiment [1], the Intrinsic activity is 89%. Moreover, the K0.5 in experiment [2] came to 23.4 nM; in experiment [4], 9.01 nM.
For the compound `CCCN1Cc2cc(C)ccc2[C@@H]2c3cc(O)c(O)cc3CC[C@H]21`, the Intrinsic activity in experiment [1] was 20%. The results for the K0.5 in experiment [2] and in experiment [4] were 181 nM and 29.4 nM, respectively. Further, the Selectivity in experiment [3] is 0.16.
